Laboratory results taken from publication PMC12282258, “Understanding the substrate recognition and catalytic mechanism of 2-O-methyl fucosidases from glycoside hydrolase family 139” (The Journal of Biological Chemistry, 2025).

Molecular target: T1, BT0984^GH139 (Bacteroides thetaiotaomicron, UniProt Q8A933)
T1 construct: gene BT_0984; full-length gene in pET28a (NheI/XhoI), N-terminal His6 tag, expressed in E. coli BL21(DE3) or TUNER; cobalt IMAC purified
T1 sequence (Q8A933 1-803): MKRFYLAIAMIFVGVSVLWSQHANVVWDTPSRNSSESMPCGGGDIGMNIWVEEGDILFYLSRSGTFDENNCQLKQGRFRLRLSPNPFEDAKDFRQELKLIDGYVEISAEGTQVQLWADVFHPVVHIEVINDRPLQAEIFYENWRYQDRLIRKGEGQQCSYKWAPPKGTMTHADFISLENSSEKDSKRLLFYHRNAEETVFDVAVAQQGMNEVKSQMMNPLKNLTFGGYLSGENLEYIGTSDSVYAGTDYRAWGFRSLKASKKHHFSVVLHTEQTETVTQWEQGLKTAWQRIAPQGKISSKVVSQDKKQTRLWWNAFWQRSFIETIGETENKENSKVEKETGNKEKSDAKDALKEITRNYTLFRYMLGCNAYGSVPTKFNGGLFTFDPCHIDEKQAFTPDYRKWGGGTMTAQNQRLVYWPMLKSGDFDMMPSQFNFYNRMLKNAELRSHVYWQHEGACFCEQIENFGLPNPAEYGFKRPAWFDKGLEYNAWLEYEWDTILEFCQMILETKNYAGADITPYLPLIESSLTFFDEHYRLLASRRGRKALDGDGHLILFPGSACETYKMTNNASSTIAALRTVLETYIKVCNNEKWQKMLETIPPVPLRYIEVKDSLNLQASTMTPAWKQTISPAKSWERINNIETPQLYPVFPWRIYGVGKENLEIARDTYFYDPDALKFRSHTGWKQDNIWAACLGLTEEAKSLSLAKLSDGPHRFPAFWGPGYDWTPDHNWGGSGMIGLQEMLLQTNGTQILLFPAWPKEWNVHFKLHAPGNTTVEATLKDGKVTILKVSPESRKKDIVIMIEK
Experiment: thin layer chromatography
Format: biochemical
Conditions: 1 μM enzyme, 10 mM MOPS pH 7.0, 150 mM NaCl, 37 °C; slow

For `CO[C@@H]1[C@H](Oc2ccc([N+](=O)[O-])cc2)O[C@@H](C)[C@@H](O)[C@H]1O` [4NP-MeFuc, 4-nitrophenyl-2-O-methyl-α-L-fucopyranoside], the thin layer chromatography was “displayed activity on 4-nitrophenyl 2-O-methyl-α-L-fucoside (4NP-MeFuc)”.
